This assay concerns the target JNK1 (Homo sapiens, UniProt P45983). Briefly: DELFIA kinase assay, JNK1. The format is biochemical. The protocol: Assay DELFIA (Dissociation Enhanced Lanthanide Fluorescence Immuno-Assay) Assay:
Before initiation of kinase reactions, compounds were pre-incubated with the enzyme for 10 minutes. Pre-incubation reactions contained 50 mM HEPES pH 7.3, 10 mM MgCl2, 1 mM DTT, 75 mM NaCl, 1 mM EDTA, 1 mM EGTA, 0.01% CHAPS, 2 nM JNK1, 6 ug/mL biotinylated GST-ATF2, 0.1 mg/ml BSA, 5% DMSO and 0-100 μM compound in a total volume of 40 μL. After a 10 minute room temperature pre-incubation, 10 μL of 35 μM ATP was added to start the reaction (final concentration of ATP=7 uM). Reactions were incubated at room temperature for 30 minutes. A small aliquot (10 uL) was taken and quenched by adding into 190 uL of DELFIA Assay buffer containing 100 mM EDTA. The amount of phosphate transferred to biotinylated GST-ATF2 was measured using the Dissociation Enhanced Lanthanide Fluorescence Immuno-assay (DELFIA) from Perkin Elmer according to manufacturers protocol. Briefly, biotinylated GST-ATF2 was captured on streptavidin coated plates for 1 hour, washed twice, then incubated for 1 hour with a 1:1000 dilution of rabbit-anti-phospho-ATF2 antibody and a 1:3500 dilution of Europium-labeled anti-rabbit secondary antibody. Free antibody was removed with six washes, Europium was dissociated from the antibody, and Europium fluorescence was measured using an excitation wavelength of 340 nm and an emission wavelength of 615 nm. JNK2 and JNK3 kinase reactions were carried out similarly, with the exception that the final concentration of ATP was 4 uM and 2 uM, respectively.

Where [1] appears, read: DELFIA, biotinylated GST-ATF2 substrate, 10 minute pre-incubation, final ATP 7 uM.
Where [2] appears, read: DELFIA assay, 2 nM JNK1, 7 uM ATP, 10 min pre-incubation, second table, read-out: JNK 1 IC50.
The mark [3] stands for this setting: DELFIA assay, 2 nM JNK1, 7 uM ATP, 10 min pre-incubation.

Values joined by “and” are separate entries in the source; they are usually repeats but may differ in a detail not shown here. Equal entries are not always repeated. Where two headings read alike, the source gives them in different places.

JNK1, sequence (P45983 whole entry, species assumed): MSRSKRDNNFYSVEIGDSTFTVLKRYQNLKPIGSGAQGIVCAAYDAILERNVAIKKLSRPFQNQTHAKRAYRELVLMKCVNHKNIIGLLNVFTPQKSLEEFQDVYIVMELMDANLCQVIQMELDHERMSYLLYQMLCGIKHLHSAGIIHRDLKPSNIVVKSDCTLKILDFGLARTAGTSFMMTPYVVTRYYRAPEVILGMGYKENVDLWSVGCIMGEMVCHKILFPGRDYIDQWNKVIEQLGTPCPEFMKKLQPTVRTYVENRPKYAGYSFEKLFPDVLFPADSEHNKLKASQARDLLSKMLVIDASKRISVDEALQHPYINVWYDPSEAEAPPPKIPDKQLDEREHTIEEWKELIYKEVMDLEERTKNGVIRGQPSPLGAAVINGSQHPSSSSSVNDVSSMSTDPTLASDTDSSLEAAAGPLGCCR

By IC50 is commonly meant the concentration that gives 50% inhibition. Compound `CC(C)NC(=O)c1cccc(C(=O)NCc2cnn(-c3cccc(S(C)(=O)=O)c3)c2)n1` [Compound 136] showed a 50% inhibitory concentration (IC50) under setting [1] of 4 to 97 nM.
The same measure, in the same setting: for `CC(C)NC(=O)c1cccc(C(=O)NCc2cnn(-c3cc(Cl)cc(Cl)c3)c2)n1` [Compound 138] the value was 4 to 19 nM and 4 to 97 nM.
On the same count and under the same terms, the result for `CC(C)NC(=O)c1cccc(C(=O)NCc2cnn(-c3cccc(F)c3)c2)n1` [Compound 139] reads 4 to 97 nM; that for `CC(C)NC(=O)c1cccc(C(=O)NCc2cnn(-c3cccnc3)c2)n1` [Compound 141], 4 to 97 nM; that for `CC(C)NC(=O)c1cccc(C(=O)NCc2cnn(-c3ccc(CN)cc3)c2)n1` [Compound 143], 4 to 97 nM.
`CC(C)NC(=O)c1cccc(C(=O)NCc2cnn(-c3cnc4ccccc4c3)c2)n1` [Compound 144]: the IC50 under setting [2] was found to be 7 nM; the half-inhibitory concentration (IC50) under setting [1] is 4 to 19 nM and 4 to 97 nM.
Consider `CC(C)NC(=O)c1cccc(C(=O)NCc2cnn(-c3cncnc3)c2)n1` [Compound 145], for which the 50% inhibitory concentration (IC50) under setting [1] was 102 to 959 nM.
As to `Cc1nc2cc(-n3cc(CNC(=O)c4cccc(C(=O)NC(C)C)n4)cn3)ccc2[nH]1` [Compound 146], under setting [1], the half-maximal inhibitory concentration (IC50) lay within 4 to 97 nM.
`CC(C)NC(=O)c1cccc(C(=O)NCc2cnn(-c3ccc4ncn(C)c4c3)c2)n1` [Compound 147] returned a half-maximal inhibitory concentration (IC50) under setting [1] of 4 to 97 nM.
`CC(C)NC(=O)c1cccc(C(=O)NCc2cnn(-c3ccc4[nH]cnc4c3)c2)n1` [Compound 148]: under setting [1], the IC50 fell in the range of 4 to 97 nM.
As to `Cc1ccc2cc(-n3cc(CNC(=O)c4cccc(C(=O)NC(C)C)n4)cn3)ccc2n1` [Compound 149], the IC50 reads like this: under setting [3], 14 nM; under setting [2], 14 nM; under setting [1], 4 to 19 nM and 4 to 97 nM.
As to `CC(C)NC(=O)c1cccc(C(=O)NCc2cnn(-c3ccc(F)c(C(F)(F)F)c3)c2)n1` [Compound 150], the concentration for half-maximal inhibition (IC50) under setting [1] is 4 to 97 nM.
With `CC(C)NC(=O)c1cccc(C(=O)NCc2cnn(-c3ccc4nccnc4c3)c2)n1` [Compound 151], the IC50 runs as follows: under setting [2], 13 nM; under setting [1], 4 to 19 nM and 4 to 97 nM.
`CC(C)NC(=O)c1cccc(C(=O)NCc2cnn(-c3cncc(F)c3)c2)n1` [Compound 153] yielded an IC50 under setting [1] of 4 to 97 nM.
Still for that read-out and setting: for `CC(C)NC(=O)c1cccc(C(=O)NCc2cnn(-c3ccc([S+](C)[O-])cc3)c2)n1` (centres unmarked) [Compound 154] the value was 4 to 97 nM.
On the same count and under the same terms, the result for `CC(C)NC(=O)c1cccc(C(=O)NCc2cnn(-c3cc(Br)cc(C#N)c3)c2)n1` [Compound 155] reads 4 to 97 nM; that for `CC(C)NC(=O)c1cccc(C(=O)NCc2cnn(-c3ccccn3)c2)n1` [Compound 156], 102 to 959 nM; that for `CC(C)NC(=O)c1cccc(C(=O)NCc2cnn(-c3ccccc3Cl)c2)n1` [Compound 157], 102 to 959 nM.
On to `CC(C)NC(=O)c1cccc(C(=O)NCc2cnn(-c3ccncc3)c2)n1` [Compound 159], for which the IC50 under setting [1] was in the range of 102 to 959 nM.
In turn, `CC(C)NC(=O)c1cccc(C(=O)NCc2cnn(-c3ncccn3)c2)n1` [Compound 160] showed a half-inhibitory concentration (IC50) under setting [1] of 102 to 959 nM.
`CC(C)NC(=O)c1cccc(C(=O)NCc2cnn(-c3cncc(C#N)c3)c2)n1` [Compound 161] gave a half-inhibitory concentration (IC50) under setting [1] of 4 to 97 nM.
Under setting [1], `CC(C)NC(=O)c1cccc(C(=O)NCc2cnn(-c3cc(F)cc(C#N)c3)c2)n1` [Compound 162] returned a half-maximal inhibitory concentration (IC50) of 102 to 959 nM.
Under setting [1], `CC(C)NC(=O)c1cccc(C(=O)NCc2cnn(-c3nccs3)c2)n1` [Compound 163] showed a 50% inhibitory concentration (IC50) of 102 to 959 nM.
The same measure, in the same setting: the result for `Cc1cccc(-c2ccc(CNC(=O)c3cccc(C(=O)NC(C)C)n3)cn2)c1` [Compound 174] reads 102 to 959 nM.
Under setting [1], `CC(C)NC(=O)c1cccc(C(=O)NCc2ccc(-c3cccc(F)c3)nc2)n1` [Compound 175] registered an IC50 of 4 to 97 nM.
Still for that read-out and setting: for `CC(C)NC(=O)c1cccc(C(=O)NCc2ccc(-c3cccc(Cl)c3)nc2)n1` [Compound 176] the value was 102 to 959 nM; for `Cc1ccc(-c2ccc(CNC(=O)c3cccc(C(=O)NC(C)C)n3)cn2)cc1` [Compound 177], 102 to 959 nM.
In turn, `CC(C)NC(=O)c1cccc(C(=O)NCc2ccc(-c3cccc(C#N)c3)nc2)n1` [Compound 178] came in with a concentration for half-maximal inhibition (IC50) under setting [1] of 102 to 959 nM.
Under setting [1], `CC(C)NC(=O)c1cccc(C(=O)NCc2ccc(-c3ccc(C#N)cc3)nc2)n1` [Compound 179] showed an IC50 of 102 to 959 nM.
`CC(C)NC(=O)c1cccc(C(=O)NCc2ccc(-c3cccc(S(C)(=O)=O)c3)nc2)n1` [Compound 180]: the IC50 under setting [1] was in the range of 102 to 959 nM.
With `CC(C)NC(=O)c1cccc(C(=O)NCc2ccc(-c3ccc(S(C)(=O)=O)cc3)nc2)n1` [Compound 181], the half-maximal inhibitory concentration (IC50) under setting [1] lay in the range of 102 to 959 nM.
Under setting [1], `CC(C)NC(=O)c1cccc(C(=O)NCc2ccc(-c3ccc(Cl)cc3)nc2)n1` [Compound 182] displayed a concentration for half-maximal inhibition (IC50) of 102 to 959 nM.
On to `CC(C)NC(=O)c1cccc(C(=O)NCc2ccc(-c3cccc(C(F)(F)F)c3)nc2)n1` [Compound 183], for which, under setting [1], the IC50 fell in the range of 102 to 959 nM.
`CC(C)NC(=O)c1cccc(C(=O)NCc2ccc(-c3ccc(F)c(Cl)c3)nc2)n1` [Compound 184]: under setting [1], the 50% inhibitory concentration (IC50) lay within 102 to 959 nM.
`CC(C)NC(=O)c1cccc(C(=O)NCc2ccc(-c3cc(Cl)cc(Cl)c3)nc2)n1` [Compound 185] registered a half-maximal inhibitory concentration (IC50) under setting [1] of 102 to 959 nM.
In the case of `CC(C)NC(=O)c1cccc(C(=O)NCc2ccc(-c3ccc4ncccc4c3)nc2)n1` [Compound 186], the IC50 under setting [1] fell in the range of 102 to 959 nM.
Still for that read-out and setting: the result for `CC(C)NC(=O)c1cccc(C(=O)NCc2cccc(-c3cccc(C#N)c3)c2)n1` [Compound 189] reads 4 to 97 nM; that for `CC(C)NC(=O)c1cccc(C(=O)NCc2cccc(-c3ccc(C#N)cc3)c2)n1` [Compound 190], 102 to 959 nM; that for `CC(C)NC(=O)c1cccc(C(=O)NCc2cccc(-c3cccc(S(C)(=O)=O)c3)c2)n1` [Compound 191], 4 to 97 nM.
On to `CC(C)NC(=O)c1cccc(C(=O)NCc2cccc(-c3ccc(S(C)(=O)=O)cc3)c2)n1` [Compound 192], for which the IC50 under setting [1] is 4 to 97 nM.
`CC(C)NC(=O)c1cccc(C(=O)NCc2ccc(-c3cccc(S(C)(=O)=O)c3)cc2)n1` [Compound 193] displayed a half-maximal inhibitory concentration (IC50) under setting [1] of 4 to 97 nM.
Regarding `CC(C)NC(=O)c1cccc(C(=O)NCc2ccc(-c3cccc(C#N)c3)cc2)n1` [Compound 194], the IC50 under setting [1] lay in the range of 102 to 959 nM.
In the case of `CC(C)NC(=O)c1cccc(C(=O)NCc2ccc(-c3ccc(C#N)cc3)cc2)n1` [Compound 195], the IC50 under setting [1] lay in the range of 102 to 959 nM.
With `CC(C)NC(=O)c1cccc(C(=O)NCc2ccc(-c3ccc(S(C)(=O)=O)cc3)cc2)n1` [Compound 196], under setting [1], the IC50 fell in the range of 102 to 959 nM.
As to `CNc1nc2ccc(CNC(=O)c3cccc(C(=O)NC(C)C)n3)cc2s1` [Compound 200], the IC50 under setting [1] lay in the range of 4 to 97 nM.
Still for that read-out and setting: for `CC(C)NC(=O)c1cccc(C(=O)NCc2ccc3nc(NC(C)C)sc3c2)n1` [Compound 201] the value was 4 to 97 nM.
In turn, `CC(C)NC(=O)c1cccc(C(=O)NCc2ccc3nc(NCCN4CCOCC4)sc3c2)n1` [Compound 202] gave a concentration for half-maximal inhibition (IC50) under setting [1] of 4 to 97 nM.
On to `CNCCNc1nc2ccc(CNC(=O)c3cccc(C(=O)NC(C)C)n3)cc2s1` [Compound 203], for which the IC50 under setting [1] lay within 4 to 97 nM.
As to `CCOC(=O)Nc1nc2ccc(CNC(=O)c3cccc(C(=O)NC(C)C)n3)cc2s1` [Compound 205], the IC50 under setting [1] fell in the range of 4 to 97 nM.
Compound `CC(C)NC(=O)c1cccc(C(=O)NCc2ccc3nc(NC(=O)N(C)C)sc3c2)n1` [Compound 207] yielded a half-inhibitory concentration (IC50) under setting [1] of 4 to 97 nM.
`CC(C)NC(=O)c1cccc(C(=O)NCc2cnn(-c3ccc4nccn4c3)c2)n1` [Compound 210] gave an IC50 under setting [1] of 4 to 97 nM.
In turn, `CC(C)NC(=O)c1cccc(C(=O)NCc2cnn(-c3cnc4nccn4c3)c2)n1` [Compound 213] showed an IC50 under setting [1] of 102 to 959 nM.
In the case of `CC(C)NC(=O)c1cccc(C(=O)NCc2cnn(-c3ccc4cncnc4c3)c2)n1` [Compound 216], the half-inhibitory concentration (IC50) under setting [1] was 4 to 97 nM.
Turning to `CC(C)NC(=O)c1cccc(C(=O)NCc2cnn(-c3cnc4[nH]cnc4c3)c2)n1` [Compound 219], under setting [1], the half-maximal inhibitory concentration (IC50) was in the range of 4 to 97 nM.
Take `Cc1nc2ccc(-n3cc(CNC(=O)c4cccc(C(=O)NC(C)C)n4)cn3)cc2n1C(C)C` [Compound 228]: the concentration for half-maximal inhibition (IC50) was 8 nM under setting [3]; 8 nM under setting [2]; 4 to 97 nM and 4 to 19 nM under setting [1].
As to `CC(C)NC(=O)c1cccc(C(=O)NCc2cnn(-c3ccc4nc(C(F)(F)F)n(C)c4c3)c2)n1` [Compound 234], under setting [1], the IC50 is 4 to 19 nM and 4 to 97 nM.
On to `CC(C)NC(=O)c1cccc(C(=O)NCc2cnn(-c3ccc4nc(C(C)C)n(C)c4c3)c2)n1` [Compound 235], for which the IC50 under setting [1] is 4 to 19 nM and 4 to 97 nM.
`CC(C)NC(=O)c1cccc(C(=O)NCc2cnn(-c3ccc4nc(-c5cccnc5)n(C)c4c3)c2)n1` [Compound 238]: the IC50 under setting [1] was 4 to 97 nM and 4 to 19 nM.
`CC(C)NC(=O)c1cccc(C(=O)NCc2cnn(-c3ccc(S(N)(=O)=O)cc3)c2)n1` [Compound 241]: the 50% inhibitory concentration (IC50) is 7 nM under setting [2]; 4 to 97 nM and 4 to 19 nM under setting [1].
`CNS(=O)(=O)c1ccc(-n2cc(CNC(=O)c3cccc(C(=O)NC(C)C)n3)cn2)cc1` [Compound 244]: the IC50 under setting [1] is 4 to 19 nM and 4 to 97 nM.
Take `CC(C)NC(=O)c1cccc(C(=O)NCc2cnn(-c3ccc(S(=O)(=O)N4CCNCC4)cc3)c2)n1` [Compound 245]: the 50% inhibitory concentration (IC50) under setting [1] was 4 to 19 nM and 4 to 97 nM.
